The source of these data is US8242146B2, “Combination of a NSAID and a PDE-4 inhibitor” (Nycomed GmbH, priority 2002, dated 2012).

Broadly, the IC50 is the concentration at which inhibition is half-maximal. For orientation: ED50 means the dose that gives a 50% effect, or the effect in half of the subjects.

Bounds are passed on as bounds.

The target of data set [1] is partially purified or recombinant PDE4. Put plainly: Inhibition of phosphodiesterase 4 in vitro. The data set is classed as biochemical.
Data set [2] concerns the target partially purified or recombinant PDE5 (Homo sapiens, UniProt O76074). Put plainly: Inhibition of phosphodiesterase 5 in vitro. In kind it is biochemical.
Data set [3] deals with Male NMRI mice. In words: Diclofenac induced blood loss in mice (fecal hemoglobin). In kind it is in vivo. The conditions noted are these: for % reduction of ΔOD690/min: NSAID 100 mg/kg diclofenac. How it is done:
(§1) Male NMRI mice (Charles River Laboratories, Sulzfeld, Germany) weighting 23-25 g were housed in groups of 5 under standard conditions at a temperature of 22° C.+/−2° C. and a 12 h light-dark cycle. If not otherwise stated animals had free access to tap water and standard food pellets. Diclofenac was administrated at doses from 1-100 mg/kg p.o.; rolipram, roflumliast and RP73401 were given at doses from 1-100 mg/kg p.o. Preventive treatment: Diclofenac was given at time point 0 h. At time points −24, −16, 0 h, +7 h one of the selective PDE4 inhibitors was administered. Curative treatment: Diclofenac was given at time point 0 h. At time points +1 h and +7 h one of the selective PDE4 inhibitors was administered. The drugs used were dissolved in 4% aqueous methyl cellulose. The animals were food reduced 24 h prior diclofenac administration. For each experiment 5 animals were used for one experimental point. Following 24 h administration of drugs animals were weighted and stool was collected quantitatively and homogenized as described below:
(§2) The modified method of Welch (Clin. Chem. 29/12, 2022-2025, 1983) was used. The amount of hemoglobin was determined by the heme catalyzed oxidation of tolidine in the presence of hydrogen peroxide. Feces was homogenized in destined water in a concentration with 1 g feces/6.6 ml H20 with an ultra-turrax (IKA-Werke, Germany). 500 μl aliquots from two different areas of the stool were taken to minimize error due to inhomogenous distribution of blood in the feces and heated 10 min at 95° C. to inactivate peroxidases and than diluted with 500 μl of acetic acid/H20 (30/70 vol/vol). Hemoglobin was extracted in 2.5 ml of acetic acid/H20 (30/70 vol/vol) by the addition of 4.5 ml ethyl acetate. The sample was rigorously shacked and the supernatant was used following a centrifugation step for optical detection of hemoglobin. Tolidine was prepared freshly from a stock solution (0.4 g tolidine in 10 ml ethanol) by mixing equal volumes of stock solution, H20 and acetic acid and equilibrated at room temperature. 20 μl of extracted supernatant was diluted to 100 μl ethyl acetate in a 96er crystal plate and incubated with 50 μl of the working solution. The reaction was initiated by the injection of 25 μl hydrogen peroxide (6%) in a Wallac Victor spectro-photometer (Turku, Finnland). The increase of OD 690 was monitored by a kinetic analysis and expressed as ΔOD690/min.

Assay in data set [4]: as above
The conditions noted are these: male, NMRI, mouse, feces, oral; mice, 3-100 mg/kg p.o., spectrophotometric determination of fecal hemoglobin; read-out: ED50 of induced gastrointestinal bleeding. In kind it is in vivo. The protocol: as §1, §2

For data set [5], the system named is isolated guinea pig Langendorff hearts. In words: Isolated guinea pig Langendorff heart.
In data set [6] the test system is Male NMRI mice. In words: Indomethacin induced blood loss in mice (fecal hemoglobin). In kind it is in vivo. As to conditions: NSAID 30 mg/kg indomethacin; PDE4 inhibitor 100 mg/kg p.o., curative. How it is done:
as §1, with “Diclofenac was administrated at doses from 1-100 mg/kg p.o.; rolipram, roflumliast and RP73401 were given at doses from 1-100 mg/kg p.o. Preventive treatment: Diclofenac was given at time point 0 h.” left out, “Curative treatment: Diclofenac was given at time point 0 h.” left out
The modified method of Welch (Clin. Chem. 29/12, 2022-2025, 1983) was used. The amount of hemoglobin was determined by the heme catalyzed oxidation of tolidine in the presence of hydrogen peroxide. Feces was homogenized in destined water in a concentration with 1 g feces/6.6 ml H20 with an ultra-turrax (IKA-Werke, Germany). […] The increase of OD 690 was monitored by a kinetic analysis and expressed as ΔOD690/min.

Turning to `CS(=O)(=O)Nc1ccc([N+](=O)[O-])cc1Oc1ccccc1` [Nimesulide, 4′-nitro-2′-phenoxymethansulfonamide], in data set [1], the half-inhibitory concentration (IC50) was 58 µM and the “PDE4 activity (in words)” value was “in the μM range”. Moreover, in data set [2], the “IC50 PDE5” value turned out to be 25 µM and the “PDE5 activity (in words)” value is on record as “in the μM range”.

On to `CCCc1nn(C)c2c(=O)[nH]c(-c3cc(S(=O)(=O)N4CCN(C)CC4)ccc3OCC)nc12` [sildenafil], for which the “protection from NSAID-induced blood loss” value in the data set with Male NMRI mice [3] (diclofenac 10-100 mg/kg p.o. t=0 h, sildenafil 3-100 mg/kg p.o. t=-48 h to +7 h) is on record as “no protection”.

`CS(=O)(=O)Nc1cc2c(cc1Oc1ccc(F)cc1F)C(=O)CC2` [CGP28238, 6-(2,4-difluorophenoxy)-5-methylsulfonylamino-1-indanone]: in data set [1], the concentration for half-maximal inhibition (IC50) amounted to 23 µM and the “PDE4 activity (in words)” value is “in the μM range”. Further, in data set [2], the “IC50 PDE5” value amounted to 14 µM and the “PDE5 activity (in words)” value is listed as “in the μM range”.

Regarding `O=C(O)Cc1ccccc1Nc1c(Cl)cccc1Cl` [Diclofenac, 2-[(2,6-dichlorophenyl)amino]benzeneacetic acid], in data set [1], the concentration for half-maximal inhibition (IC50) is greater than 100 µM and the “PDE4 activity (in words)” value is recorded as “only minor effects”. In addition, in data set [2], the “IC50 PDE5” value was greater than 100 µM and the “PDE5 activity (in words)” value is “only minor effects”. Moreover, the ED50 at 24 h in data set [4] was 56 mg/kg.

`Cc1ccc(-c2cc(C(F)(F)F)nn2-c2ccc(S(N)(=O)=O)cc2)cc1` [Celecoxib, 4-[5-(4-methylphenyl)-3-(tri-fluoromethyl)-1H-pyrazol-1-yl]benzenesulfonamide]: in data set [1], the IC50 is 6 µM and the “PDE4 activity (in words)” value is recorded as “in the μM range”. For the same molecule, in data set [2], the “PDE5 activity (in words)” value is recorded as “in the μM range”. In addition, in data set [5], the heart rate entry is recorded as “no effect” and the left ventricular pressure entry is reported as “no effect”. Moreover, the coronary heart flow entry in data set [5] (doses consistent with inhibitory potency on PDE4 and 5) is “selectively increased”.

As to `CC(=O)Oc1ccccc1C(=O)O` [ASS, 2-(acetyloxy)benzoic acid], in data set [1], the IC50 was greater than 100 µM and the “PDE4 activity (in words)” value is recorded as “only minor effects”. In addition, in data set [2], the “IC50 PDE5” value is greater than 100 µM and the “PDE5 activity (in words)” value is “only minor effects”.

Turning to `O=C(Nc1c(Cl)cncc1Cl)c1ccc(OC(F)F)c(OCC2CC2)c1` [Roflumilast, 3-Cyclopropylmethoxy-4-difluoromethoxy-N-(3,5-dichloropyrid-4-yl)-benzamide], the “% reduction of ΔOD690/min” value with Male NMRI mice [3] (PDE4 inhibitor 3 mg/kg p.o., curative) is 95%; in the data set on Male NMRI mice [3] (PDE4 inhibitor 10 mg/kg p.o., preventive) it was 95%.

Take `COc1ccc2c(c1)c(CC(=O)O)c(C)n2C(=O)c1ccc(Cl)cc1` [Indometacin, 1-(4-chlorobenzoyl)-5-methoxy-2-methyl-1H-indole-3-acetic acid]: in data set [1], the IC50 was roughly 100 µM and the “PDE4 activity (in words)” value is on record as “only minor effects”. In data set [2], the “IC50 PDE5” value amounted to 62 µM and the “PDE5 activity (in words)” value is given as “only minor effects”.

For `COc1ccc(C(=O)Nc2c(Cl)cncc2Cl)cc1OC1CCCC1` [RP73401], the “% reduction of ΔOD690/min” value in the data set on Male NMRI mice [6] amounted to 96%.

Consider `COc1ccc(C2CNC(=O)C2)cc1OC1CCCC1` (centres unmarked) [Rolipram], for which the “% reduction of ΔOD690/min” value in the data set with Male NMRI mice [3] (PDE4 inhibitor 10 mg/kg p.o., curative) turned out to be 82%; in the data set with Male NMRI mice [3] (PDE4 inhibitor 30 mg/kg p.o., preventive) it was 90%; with Male NMRI mice [6] it was 65%.

With `CS(=O)(=O)Nc1cc2c(cc1Sc1ccc(F)cc1F)C(=O)CC2` [L-745337, 5-methanesulfonamido-6-(2,4-difluorophenylthio)-1-indanone], in data set [1], the IC50 came to 31 µM and the “PDE4 activity (in words)” value was “in the μM range”. In data set [2], the “IC50 PDE5” value turned out to be 24 µM and the “PDE5 activity (in words)” value is “in the μM range”.
